# Experimental data as given in patent US20110172296A1, “MODULATION OF TRANSFORMING GROWTH FACTOR-BETA 1 EXPRESSION” (priority 2010, published 2011).
# Values joined by “and” are separate entries in the source; they are usually repeats but may differ in a detail not shown here. Identical values can stand only once. “Also recorded” adds a separate entry of the source. e = 2'-O-(2-methoxyethyl) (MOE); d = 2'-deoxy (DNA)
# Experiments:
# human TGF-beta1 mRNA [1] = experiment: Dose-dependent confirmation of antisense inhibition of human TGF-beta1 in HuVEC cells after large-scale synthesis, Lipofectamine 2000, 0.007-15 nM (Example 5); assay type: cell-based; details: for percent inhibition of TGF-beta1: Lipofectamine 2000
# Method: Cells were plated at a density of 5,000 cells per well and transfected using Lipofectamine™ 2000 reagent with 0.007 nM, 0.021 nM, 0.062 nM, 0.185 nM, 0.556 nM, 1.667 nM, 5 nM, and 15 nM concentrations of antisense oligonucleotide for 4 hours, as specified in Table 5. After a recovery period of approximately 16 hours, RNA was isolated from the cells and TGF-beta1 mRNA levels were measured by quantitative real-time PCR. Human TGF-beta1 primer probe set RTS 2980 was used to measure mRNA levels. TGF-beta1 mRNA levels were adjusted according to total RNA content, as measured by RIBOGREEN®. Results are presented as percent inhibition of TGF-beta1, relative to untreated control cells.
# BALB/c mice [2] = experiment: Tolerability in BALB/c mice: plasma transaminases ALT and AST (Example 7); details: for aspartate transaminase levels: plasma
# human TGF-beta1 mRNA [3] = experiment: Dose-dependent confirmation of antisense inhibition of human TGF-beta1 in HuVEC cells, electroporation (Example 6); assay type: cell-based
# Method: The gapmers from Example 5 (see Table 5) were also tested at various doses in HuVEC cells using electroporation as the transfection reagent. Cells were plated at a density of 20,000 cells per well and transfected using electroporation with 0.15625 nM, 0.3125 nM, 0.625 nM, 1.25 nM, 2.5 nM, 5 nM, 10 nM, and 20 nM concentrations of antisense oligonucleotide for 4 hours, as specified in Table 6. After a recovery period of approximately 16 hours, RNA was isolated from the cells and TGF-beta1 mRNA levels were measured by quantitative real-time PCR. TGF-beta1 mRNA levels were adjusted according to total RNA content, as measured by RIBOGREEN®. Results are presented as percent inhibition of TGF-beta1, relative to untreated control cells.
# BALB/c mice [4] = details: mouse, in vivo
# human TGF-beta1 mRNA [5] = experiment: Dose-dependent antisense inhibition of human TGF-beta1 in HuVEC cells, Lipofectamine 2000, 0.3292-80 nM, comparison with oligos of U.S. Pat. No. 6,436,909 (Example 4); assay type: cell-based
# Method: The dose-dependent antisense inhibition potential of these gapmers was compared with that of Oligo IDs 104992 and 1138498 from U.S. Pat. No. 6,436,909. Cells were plated at a density of 5,000 cells per well and transfected using Lipofectamine™ 2000 reagent with 0.3292 nM, 0.9877 nM, 2.963 nM, 8.8889 nM, 26.6667 nM, and 80 nM concentrations of antisense oligonucleotide for 4 hours, as specified in Table 4. After a recovery period of approximately 16 hours, RNA was isolated from the cells and TGF-beta1 mRNA levels were measured by quantitative real-time PCR. Human TGF-beta1 primer probe set RTS 2980 was used to measure mRNA levels. TGF-beta1 mRNA levels were adjusted according to total RNA content, as measured by RIBOGREEN®. Results are presented as percent inhibition of TGF-beta1, relative to untreated control cells. […] All the antisense oligonucleotides in Table 4 target human TGF-beta1 mRNA (SEQ ID NO: 1).
# human TGF-beta1 mRNA [6] = experiment: Dose-dependent antisense inhibition of human TGF-beta1 in HuVEC cells, Lipofectamine 2000, 0.9375-30 nM (Example 3); assay type: cell-based; details: Lipofectamine 2000
# Method: Cells were plated at a density of 5,000 cells per well and transfected using Lipofectamine™ 2000 reagent with 0.9375 nM, 1.875 nM, 3.75 nM, 7.5 nM, 15 nM, and 30 nM concentrations of antisense oligonucleotide for 4 hours, as specified in Table 3. After a recovery period of approximately 16 hours, RNA was isolated from the cells and TGF-beta1 mRNA levels were measured by quantitative real-time PCR. Human TGF-beta1 primer probe set RTS 2980 (forward sequence CTCTCCGACCTGCCACAGA, SEQ ID NO: 160; reverse sequence […], SEQ ID NO: 53; probe sequence CCCTATTCAAGACCACCCACCTTCTGGTX, SEQ ID NO: 161) was used to measure mRNA levels. TGF-beta1 mRNA levels were adjusted according to total RNA content, as measured by RIBOGREEN®. Results are presented as percent inhibition of TGF-beta1, relative to untreated control cells.
# human TGF-beta1 mRNA [7] = experiment: Antisense inhibition of human TGF-beta1 mRNA in HuVEC cells, single 10 nM dose, Lipofectamine 2000 (Example 2); assay type: cell-based
# Method in brief: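 Percent inhibition relative to untreated controls, from qRT-PCR of mRNA corrected for total RNA (RIBOGREEN). Cells were exposed 4 h to 10 nM phosphorothioate 2-13-5 MOE gapmers with Lipofectamine 2000 at 5,000 cells/well. RNA was harvested after roughly 24 h recovery.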
# [8] = tested on: bleomycin-induced skin fibrosis in C57BL/6 mice; experiment: Bleomycin-induced murine model of skin fibrosis: skin thickness and breaking strength (Example 10); assay type: in vivo, mouse; details: C57BL/6 mice, 5 mg intradermally twice a week, Day 18
# Method: The ability of a TGF-beta1 ASO to reduce the induction of skin fibrosis in a bleomycin-induced model of dermal fibrosis was evaluated.
# Two groups of 8 C57BL/6 mice each were treated with bleomycin every other day for 19 days. Bleomycin, at a concentration of 10 mg/mL in PBS and at a volume of 0.1 mL, was injected subcutaneously into the shaved backs of the mice. The injection site was divided into 4 quadrants. The 100 μL volume of bleomycin was divided into four 25 μL aliquots injected at 90 degree intervals, to the upper left, upper right, lower left, and lower right “quadrants”.
# Each of the two groups was treated intradermally with PBS (vehicle) or a 5 mg dose of a TGF-beta1 antisense oligonucleotide (Oligo ID 433849) twice a week, starting from day 1 of bleomycin administration. Animals were sacrificed on Day 18 of the study. Skin thickness was measured by skin calipers on 6-mm punch biopsy specimens obtained from the upper back of the mice. Breaking strength of the skin was measured on the 6-mm punch biopsy specimens using a tensiometer (Series EG2 digital force gauge; Mark-10, Copiague, N.Y.), and the point of maximal stress before tearing of the biopsy specimen was recorded. All measurements were undertaken in a blinded manner.
substance,measurement,setting,value
"413982 (antisense GCCTCCGGCTCCCAGCGGCA; sugars from the 5' end e2 d13 e5, backbone and methylation of C not given here) [compound 413982]",percent inhibition of TGF-beta1,human TGF-beta1 mRNA [1]; 0.007 nM,0%
same,percent inhibition of TGF-beta1,human TGF-beta1 mRNA [1]; 0.021 nM,14%
same,percent inhibition of TGF-beta1,human TGF-beta1 mRNA [1]; 0.062 nM,31%
same,percent inhibition of TGF-beta1,human TGF-beta1 mRNA [1]; 0.185 nM,56%
same,percent inhibition of TGF-beta1,human TGF-beta1 mRNA [1]; 0.556 nM,71%
same,percent inhibition of TGF-beta1,human TGF-beta1 mRNA [1]; 1.667 nM,79%
same,percent inhibition of TGF-beta1,human TGF-beta1 mRNA [1]; 5 nM,89%
same,percent inhibition of TGF-beta1,human TGF-beta1 mRNA [1]; 15 nM,92%
same,IC50,"human TGF-beta1 mRNA [1]; Lipofectamine 2000, Example 5",0.24 nM
same,alanine transaminase levels,"BALB/c mice [2]; 25 mg/kg twice a week, Week 2",59 IU/L
same,alanine transaminase levels,"BALB/c mice [2]; 25 mg/kg twice a week, Week 4",140 IU/L
same,aspartate transaminase levels,"BALB/c mice [2]; 25 mg/kg twice a week, Week 2",74 IU/L
same,aspartate transaminase levels,"BALB/c mice [2]; 25 mg/kg twice a week, Week 4",161 IU/L
same,alanine transaminase levels,"BALB/c mice [2]; 50 mg/kg twice a week, Week 2",77 IU/L
same,alanine transaminase levels,"BALB/c mice [2]; 50 mg/kg twice a week, Week 4",462 IU/L
same,aspartate transaminase levels,"BALB/c mice [2]; 50 mg/kg twice a week, Week 2",92 IU/L
same,aspartate transaminase levels,"BALB/c mice [2]; 50 mg/kg twice a week, Week 4",460 IU/L
same,increase in ALT/AST,BALB/c mice [2]; 25 or 50 mg/kg twice a week for four weeks,< 16 fold
same,percent inhibition of TGF-beta1 mRNA relative to untreated control cells,human TGF-beta1 mRNA [3]; 0.15625 nM oligonucleotide,26%
same,percent inhibition of TGF-beta1 mRNA relative to untreated control cells,human TGF-beta1 mRNA [3]; 0.3125 nM oligonucleotide,32%
same,percent inhibition of TGF-beta1 mRNA relative to untreated control cells,human TGF-beta1 mRNA [3]; 0.625 nM oligonucleotide,57%
same,percent inhibition of TGF-beta1 mRNA relative to untreated control cells,human TGF-beta1 mRNA [3]; 1.25 nM oligonucleotide,79%
same,percent inhibition of TGF-beta1 mRNA relative to untreated control cells,human TGF-beta1 mRNA [3]; 2.5 nM oligonucleotide,85%
same,percent inhibition of TGF-beta1 mRNA relative to untreated control cells,human TGF-beta1 mRNA [3]; 5.00 nM oligonucleotide,89%
same,percent inhibition of TGF-beta1 mRNA relative to untreated control cells,human TGF-beta1 mRNA [3]; 10.00 nM oligonucleotide,93%
same,percent inhibition of TGF-beta1 mRNA relative to untreated control cells,human TGF-beta1 mRNA [3]; 20 nM oligonucleotide,96%
same,tolerability compared to Oligo ID 105204,BALB/c mice [4],improved tolerability
same,percent inhibition of TGF-beta1,human TGF-beta1 mRNA [5]; 0.3292 nM,76%
same,percent inhibition of TGF-beta1,human TGF-beta1 mRNA [5]; 0.9877 nM,87%
same,percent inhibition of TGF-beta1,human TGF-beta1 mRNA [5]; 2.963 nM,91%
same,percent inhibition of TGF-beta1,human TGF-beta1 mRNA [5]; 8.8889 nM,95%
same,percent inhibition of TGF-beta1,human TGF-beta1 mRNA [5]; 26.6667 nM,95%
same,percent inhibition of TGF-beta1,human TGF-beta1 mRNA [5]; 80.0 nM,93%
same,percent inhibition of TGF-beta1,human TGF-beta1 mRNA [6]; 0.9375 nM,56%
same,percent inhibition of TGF-beta1,human TGF-beta1 mRNA [6]; 1.875 nM,77%
same,percent inhibition of TGF-beta1,human TGF-beta1 mRNA [6]; 3.75 nM,88%
same,percent inhibition of TGF-beta1,human TGF-beta1 mRNA [6]; 7.5 nM,95%
same,percent inhibition of TGF-beta1,human TGF-beta1 mRNA [6]; 15 nM,96%
same,percent inhibition of TGF-beta1,human TGF-beta1 mRNA [6]; 30 nM,97%
same,% inhibition,"human TGF-beta1 mRNA [7]; 10 nM oligonucleotide, HuVEC, relative to untreated control cells, gapmers targeted to SEQ ID NO: 1",88%
same,inhibition of a TGF-beta1 mRNA,"human TGF-beta1 mRNA [7]; threshold lists of Oligo IDs, 10 nM",60% and 65% and 70% and 75% and 80% and 85%
"Oligo ID 433849: rat specific TGF-beta1 antisense oligonucleotide; SEQ ID NO. 166 (antisense GTCCTTAAATACAGCCCCGG; listed as DNA, chemistry not given here) [rat specific TGF-beta1 antisense oligonucleotide; 166]",bleomycin-induced skin fibrosis and thickening,[8],significantly reduced
same,bleomycin-induced skin fibrosis and thickening,[8]; listed as TGF-beta1 ASO,significantly reduced; also recorded: reduced the severity
